Patent US6737383B1, “Herbicidal oxadiazolidines” (priority 1999, dated 2004)

Experiments:
velvetleaf = assay: Test B pre/postemergence velvetleaf; format: in vivo, Abutilon theophrasti
Method in brief: (§1)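 Herbicidal effect was estimated by eye on a ten-point control scale after plants spent twelve to sixteen days in a greenhouse following soil or foliar treatment. Foliar sprays targeted plants at one to four leaves; all doses were formulated in a non-phytotoxic solvent with surfactant.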

duck salad = assay: Test B flood test duck salad; format: in vivo, Heteranthera limosa
Method in brief: (§2)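 Each value is a visual injury score relative to controls, with 10 meaning complete control and 0 no effect. Evaluation took place twelve to sixteen days after the 2-leaf-stage plants were treated and kept in the greenhouse.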

purple nutsedge = assay: Test B pre/postemergence purple nutsedge; format: in vivo, Cyperus rotundus; conditions: Postemergence
Method in brief: as §1

wheat = assay: Test B pre/postemergence wheat; format: in vivo, Triticum aestivum
Method in brief: as §1

rice = assay: Test B flood test rice; format: in vivo, Oryza sativa
Method in brief: as §2

corn = assay: Test B pre/postemergence corn; format: in vivo, Zea mays
Method in brief: as §1

surinam grass = assay: Test B pre/postemergence surinam grass; format: in vivo, Brachiaria decumbens
Method in brief: as §1

sugar beet = assay: Test B pre/postemergence sugar beet; format: in vivo, Beta vulgaris
Method in brief: as §1

soybean = assay: Test B pre/postemergence soybean; format: in vivo, Glycine max
Method in brief: as §1

smallflower flatsedge = assay: Test B flood test smallflower flatsedge; format: in vivo, Cyperus difformis
Method in brief: as §2

cocklebur = assay: Test B pre/postemergence cocklebur; format: in vivo, Xanthium strumarium
Method in brief: as §1

crabgrass = assay: Test B pre/postemergence crabgrass; format: in vivo, Digitaria sanguinalis
Method in brief: as §1

bedstraw = assay: Test B pre/postemergence bedstraw; format: in vivo, Galium aparine
Method in brief: as §1

bamyardgrass = assay: Test B flood test barnyardgrass; format: in vivo, Echinochloa crus-galli
Method in brief: as §2

giant foxtail = assay: Test B pre/postemergence giant foxtail; format: in vivo, Setaria faberii
Method in brief: as §1

blackgrass = assay: Test B pre/postemergence blackgrass; format: in vivo, Alopecurus myosuroides
Method in brief: as §1

rape = assay: Test B pre/postemergence rape; format: in vivo, Brassica napus
Method in brief: as §1

[1] = Preemergence, Rate 62 g/ha, scale of 0 to 10 where 0 is no effect and 10 is complete control
[2] = Preemergence, Rate 250 g/ha, scale of 0 to 10 where 0 is no effect and 10 is complete control
[3] = Preemergence, Rate 500 g/ha, scale of 0 to 10 where 0 is no effect and 10 is complete control
[4] = Rate 62 g/ha, Postemergence, scale of 0 to 10 where 0 is no effect and 10 is complete control
[5] = Rate 125 g/ha, Postemergence, scale 0 to 10
[6] = Rate 125 g/ha, Preemergence, scale of 0 to 10 where 0 is no effect and 10 is complete control
[7] = Rate 500 g/ha, Postemergence, scale 0 to 10, 0 no effect, 10 complete control
[8] = Rate 62 g/ha, headed Pre-emergence (flood test species), scale 0 to 10 (0 no effect, 10 complete control)
[9] = Rate 125 g/ha, Pre-emergence, flood test species, scale 0 to 10 where 0 is no effect and 10 is complete control
[10] = Rate 250 g/ha, Pre-emergence, flood-test species, scale 0 to 10, 0 is no effect, 10 is complete control
[11] = Rate 500 g/ha, Pre-emergence, flood test species, scale 0 to 10 (0 no effect, 10 complete control)

CC(C)N(C(=O)n1oc(=O)n(-c2cccnc2)c1=O)c1ccccc1 [Compound 235]
0: Velvetleaf plant response rating (velvetleaf; [1]) | Velvetleaf plant response rating (velvetleaf; [2]) | Plant response rating, Velvetleaf (velvetleaf; [3]) | Velvetleaf plant response rating (velvetleaf; [4]) | Velvetleaf plant response rating (velvetleaf; [5]) | Velvetleaf plant response rating (velvetleaf; [6]) | Plant response rating (0 to 10; 0 is no effect, 10 is complete control), Velvetleaf (velvetleaf; Rate 250 g/ha, Postemergence) | Velvetleaf plant response rating (velvetleaf; [7]) | Ducksalad plant response rating (duck salad; [8]) | Ducksalad plant response rating (duck salad; [9]) | Ducksalad plant response rating (duck salad; [10]) | Ducksalad plant response rating (duck salad; [11]) | Nutsedge plant response rating (purple nutsedge; Rate 62 g/ha, scale of 0 to 10 where 0 is no effect and 10 is complete control) | Nutsedge plant response rating (purple nutsedge; Rate 125 g/ha, scale 0 to 10) | Plant response rating (0 to 10; 0 is no effect, 10 is complete control), Nutsedge (purple nutsedge; Rate 250 g/ha) | Nutsedge plant response rating (purple nutsedge; Rate 500 g/ha, scale 0 to 10, 0 no effect, 10 complete control) | Wheat plant response rating (wheat; [1]) | Wheat plant response rating (wheat; [2]) | Plant response rating, Wheat (wheat; [3]) | Wheat plant response rating (wheat; [4]) | Wheat plant response rating (wheat; [5]) | Wheat plant response rating (wheat; [6]) | Plant response rating (0 to 10; 0 is no effect, 10 is complete control), Wheat (wheat; Rate 250 g/ha, Postemergence) | Wheat plant response rating (wheat; [7]) | Rice plant response rating (rice; [8]) | Rice plant response rating (rice; [9]) | Rice plant response rating (rice; [10]) | Rice plant response rating (rice; [11]) | Corn plant response rating (corn; [1]) | Corn plant response rating (corn; [2]) | Plant response rating, Corn (corn; [3]) | Corn plant response rating (corn; [4]) | Corn plant response rating (corn; [5]) | Corn plant response rating (corn; [6]) | Plant response rating (0 to 10; 0 is no effect, 10 is complete control), Corn (corn; Rate 250 g/ha, Postemergence) | Corn plant response rating (corn; [7]) | B. signalgrass plant response rating (surinam grass; [1]) | B. signalgrass plant response rating (surinam grass; Preemergence, Rate 250 g/ha, scale 0 to 10, 0 is no effect, 10 is complete control) | Plant response rating, B. signalgrass (surinam grass; [3]) | B. signalgrass plant response rating (surinam grass; [4]) | B. signalgrass plant response rating (surinam grass; Rate 125 g/ha, Postemergence, scale 0 (no effect) to 10 (complete control)) | B. signalgrass plant response rating (surinam grass; [6]) | Plant response rating (0 to 10; 0 is no effect, 10 is complete control), B. signalgrass (surinam grass; Rate 250 g/ha, Postemergence) | B. signalgrass plant response rating (surinam grass; [7]) | Sugarbeets plant response rating (sugar beet; [1]) | Sugarbeets plant response rating (sugar beet; [2]) | Plant response rating, Sugarbeets (sugar beet; [3]) | Sugarbeets plant response rating (sugar beet; [4]) | Sugarbeets plant response rating (sugar beet; [5]) | Sugarbeets plant response rating (sugar beet; [6]) | Plant response rating (0 to 10; 0 is no effect, 10 is complete control), Sugarbeets (sugar beet; Rate 250 g/ha, Postemergence) | Sugarbeets plant response rating (sugar beet; [7]) | Soybean plant response rating (soybean; [1]) | Soybean plant response rating (soybean; [2]) | Plant response rating, Soybean (soybean; [3]) | Soybean plant response rating (soybean; [4]) | Soybean plant response rating (soybean; [5]) | Soybean plant response rating (soybean; [6]) | Plant response rating (0 to 10; 0 is no effect, 10 is complete control), Soybean (soybean; Rate 250 g/ha, Postemergence) | Soybean plant response rating (soybean; [7]) | S. Flatsedge plant response rating (smallflower flatsedge; [8]) | S. Flatsedge plant response rating (smallflower flatsedge; [9]) | S. Flatsedge plant response rating (smallflower flatsedge; [10]) | S. Flatsedge plant response rating (smallflower flatsedge; [11]) | Cocklebur plant response rating (cocklebur; [1]) | Cocklebur plant response rating (cocklebur; [2]) | Plant response rating, Cocklebur (cocklebur; [3]) | Cocklebur plant response rating (cocklebur; [4]) | Cocklebur plant response rating (cocklebur; [5]) | Cocklebur plant response rating (cocklebur; [6]) | Plant response rating (0 to 10; 0 is no effect, 10 is complete control), Cocklebur (cocklebur; Rate 250 g/ha, Postemergence) | Cocklebur plant response rating (cocklebur; [7]) | Crabgrass plant response rating (crabgrass; [1]) | Crabgrass plant response rating (crabgrass; [2]) | Plant response rating, Crabgrass (crabgrass; [3]) | Crabgrass plant response rating (crabgrass; [4]) | Crabgrass plant response rating (crabgrass; [5]) | Crabgrass plant response rating (crabgrass; [6]) | Plant response rating (0 to 10; 0 is no effect, 10 is complete control), Crabgrass (crabgrass; Rate 250 g/ha, Postemergence) | Crabgrass plant response rating (crabgrass; [7]) | Bedstraw plant response rating (bedstraw; [1]) | Bedstraw plant response rating (bedstraw; [2]) | Plant response rating, Bedstraw (bedstraw; [3]) | Bedstraw plant response rating (bedstraw; [4]) | Bedstraw plant response rating (bedstraw; [5]) | Bedstraw plant response rating (bedstraw; [6]) | Plant response rating (0 to 10; 0 is no effect, 10 is complete control), Bedstraw (bedstraw; Rate 250 g/ha, Postemergence) | Bedstraw plant response rating (bedstraw; [7]) | Barnyardgrass plant response rating (bamyardgrass; [8]) | Barnyardgrass plant response rating (bamyardgrass; [9]) | Barnyardgrass plant response rating (bamyardgrass; [10]) | Barnyardgrass plant response rating (bamyardgrass; [11]) | Giant foxtail plant response rating (giant foxtail; [1]) | Giant foxtail plant response rating (giant foxtail; [2]) | Plant response rating, Giant foxtail (giant foxtail; [3]) | Giant foxtail plant response rating (giant foxtail; [4]) | Giant foxtail plant response rating (giant foxtail; [5]) | Giant foxtail plant response rating (giant foxtail; [6]) | Plant response rating (0 to 10; 0 is no effect, 10 is complete control), Giant foxtail (giant foxtail; Rate 250 g/ha, Postemergence) | Giant foxtail plant response rating (giant foxtail; [7]) | Blackgrass plant response rating (blackgrass; [1]) | Blackgrass plant response rating (blackgrass; [2]) | Plant response rating, Blackgrass (blackgrass; [3]) | Blackgrass plant response rating (blackgrass; [4]) | Blackgrass plant response rating (blackgrass; [5]) | Blackgrass plant response rating (blackgrass; [6]) | Plant response rating (0 to 10; 0 is no effect, 10 is complete control), Blackgrass (blackgrass; Rate 250 g/ha, Postemergence) | Blackgrass plant response rating (blackgrass; [7]) | Rape plant response rating (rape; [1]) | Rape plant response rating (rape; [2]) | Plant response rating, Rape (rape; [3]) | Rape plant response rating (rape; [4]) | Rape plant response rating (rape; [5]) | Rape plant response rating (rape; [6]) | Plant response rating (0 to 10; 0 is no effect, 10 is complete control), Rape (rape; Rate 250 g/ha, Postemergence) | Rape plant response rating (rape; [7])
